From the NIST ThermoML archive (doi:10.1016/j.tca.2013.06.031)
± gives the expanded uncertainty stated by the source.

Assay: mn = molality of the nth substance listed, in mol/kg
Conditions: 101 kPa, Liquid; for viscosity: Capillary tube (Ostwald / Ubbelohde) method; for mass density: Vibrating tube method

Structure (SMILES): CO/N=C(\C(=O)N[C@@H]1C(=O)N2C(C(=O)[O-])=C(CSc3nc(C)c(CC(=O)[O-])s3)CS[C@H]12)c1csc(N)n1.[Na+].[Na+] + O
- viscosity (278.15 K, m1 = 0.01): 1.551 ± 0.015 mPa·s
- viscosity (278.15 K, m1 = 0.03): 1.609 ± 0.015 mPa·s
- viscosity (278.15 K, m1 = 0.05): 1.667 ± 0.016 mPa·s
- viscosity (278.15 K, m1 = 0.07): 1.724 ± 0.016 mPa·s
- viscosity (278.15 K, m1 = 0.09): 1.783 ± 0.017 mPa·s
- viscosity (278.15 K, m1 = 0.11): 1.839 ± 0.017 mPa·s
- viscosity (278.15 K, m1 = 0.13): 1.9 ± 0.018 mPa·s
- viscosity (278.15 K, m1 = 0.15): 1.962 ± 0.018 mPa·s
- mass density (278.15 K, m1 = 0.01): 1002.35 ± 0.23 kg/m3
- mass density (278.15 K, m1 = 0.03): 1006.68 ± 0.21 kg/m3
- mass density (278.15 K, m1 = 0.05): 1010.63 ± 0.2 kg/m3
- mass density (278.15 K, m1 = 0.07): 1014.39 ± 0.19 kg/m3
- mass density (278.15 K, m1 = 0.09): 1018.03 ± 0.19 kg/m3
- mass density (278.15 K, m1 = 0.11): 1021.6 ± 0.19 kg/m3
- mass density (278.15 K, m1 = 0.13): 1025.13 ± 0.18 kg/m3
- mass density (278.15 K, m1 = 0.15): 1028.54 ± 0.18 kg/m3
- viscosity (283.15 K, m1 = 0.01): 1.33 ± 0.013 mPa·s
- viscosity (283.15 K, m1 = 0.03): 1.381 ± 0.013 mPa·s
- viscosity (283.15 K, m1 = 0.05): 1.431 ± 0.014 mPa·s
- viscosity (283.15 K, m1 = 0.07): 1.479 ± 0.014 mPa·s
- viscosity (283.15 K, m1 = 0.09): 1.529 ± 0.015 mPa·s
- viscosity (283.15 K, m1 = 0.11): 1.577 ± 0.015 mPa·s
- viscosity (283.15 K, m1 = 0.13): 1.63 ± 0.016 mPa·s
- viscosity (283.15 K, m1 = 0.15): 1.682 ± 0.016 mPa·s
- mass density (283.15 K, m1 = 0.01): 1002.07 ± 0.23 kg/m3
- mass density (283.15 K, m1 = 0.03): 1006.36 ± 0.21 kg/m3
- mass density (283.15 K, m1 = 0.05): 1010.27 ± 0.2 kg/m3
- mass density (283.15 K, m1 = 0.07): 1014 ± 0.19 kg/m3
- mass density (283.15 K, m1 = 0.09): 1017.61 ± 0.19 kg/m3
- mass density (283.15 K, m1 = 0.11): 1021.14 ± 0.18 kg/m3
- mass density (283.15 K, m1 = 0.13): 1024.59 ± 0.18 kg/m3
- mass density (283.15 K, m1 = 0.15): 1027.97 ± 0.18 kg/m3
- viscosity (288.15 K, m1 = 0.01): 1.153 ± 0.011 mPa·s
- viscosity (288.15 K, m1 = 0.03): 1.197 ± 0.011 mPa·s
- viscosity (288.15 K, m1 = 0.05): 1.24 ± 0.012 mPa·s
- viscosity (288.15 K, m1 = 0.07): 1.282 ± 0.012 mPa·s
- viscosity (288.15 K, m1 = 0.09): 1.326 ± 0.013 mPa·s
- viscosity (288.15 K, m1 = 0.11): 1.367 ± 0.013 mPa·s
- viscosity (288.15 K, m1 = 0.13): 1.413 ± 0.013 mPa·s
- viscosity (288.15 K, m1 = 0.15): 1.458 ± 0.014 mPa·s
- mass density (288.15 K, m1 = 0.01): 1001.45 ± 0.22 kg/m3
- mass density (288.15 K, m1 = 0.03): 1005.68 ± 0.21 kg/m3
- mass density (288.15 K, m1 = 0.05): 1009.58 ± 0.2 kg/m3
- mass density (288.15 K, m1 = 0.07): 1013.27 ± 0.19 kg/m3
- mass density (288.15 K, m1 = 0.09): 1016.85 ± 0.18 kg/m3
- mass density (288.15 K, m1 = 0.11): 1020.33 ± 0.18 kg/m3
- mass density (288.15 K, m1 = 0.13): 1023.74 ± 0.18 kg/m3
- mass density (288.15 K, m1 = 0.15): 1027.06 ± 0.17 kg/m3
- viscosity (293.15 K, m1 = 0.01): 1.016 ± 0.0095 mPa·s
- viscosity (293.15 K, m1 = 0.03): 1.055 ± 0.0099 mPa·s
- viscosity (293.15 K, m1 = 0.05): 1.094 ± 0.01 mPa·s
- viscosity (293.15 K, m1 = 0.07): 1.13 ± 0.01 mPa·s
- viscosity (293.15 K, m1 = 0.09): 1.169 ± 0.011 mPa·s
- viscosity (293.15 K, m1 = 0.11): 1.206 ± 0.011 mPa·s
- viscosity (293.15 K, m1 = 0.13): 1.246 ± 0.011 mPa·s
- viscosity (293.15 K, m1 = 0.15): 1.285 ± 0.012 mPa·s
- mass density (293.15 K, m1 = 0.01): 1000.53 ± 0.22 kg/m3
- mass density (293.15 K, m1 = 0.03): 1004.71 ± 0.21 kg/m3
- mass density (293.15 K, m1 = 0.05): 1008.6 ± 0.2 kg/m3
- mass density (293.15 K, m1 = 0.07): 1012.24 ± 0.19 kg/m3
- mass density (293.15 K, m1 = 0.09): 1015.8 ± 0.2 kg/m3
- mass density (293.15 K, m1 = 0.11): 1019.24 ± 0.18 kg/m3
- mass density (293.15 K, m1 = 0.13): 1022.59 ± 0.18 kg/m3
- mass density (293.15 K, m1 = 0.15): 1025.89 ± 0.17 kg/m3
- viscosity (298.15 K, m1 = 0.01): 0.9017 ± 0.0084 mPa·s
- viscosity (298.15 K, m1 = 0.03): 0.9359 ± 0.0087 mPa·s
- viscosity (298.15 K, m1 = 0.05): 0.9694 ± 0.009 mPa·s
- viscosity (298.15 K, m1 = 0.07): 1.002 ± 0.0093 mPa·s
- viscosity (298.15 K, m1 = 0.09): 1.036 ± 0.0096 mPa·s
- viscosity (298.15 K, m1 = 0.11): 1.069 ± 0.0098 mPa·s
- viscosity (298.15 K, m1 = 0.13): 1.104 ± 0.01 mPa·s
- viscosity (298.15 K, m1 = 0.15): 1.14 ± 0.01 mPa·s
- mass density (298.15 K, m1 = 0.01): 999.36 ± 0.22 kg/m3
- mass density (298.15 K, m1 = 0.03): 1003.52 ± 0.21 kg/m3
- mass density (298.15 K, m1 = 0.05): 1007.36 ± 0.19 kg/m3
- mass density (298.15 K, m1 = 0.07): 1010.99 ± 0.19 kg/m3
- mass density (298.15 K, m1 = 0.09): 1014.51 ± 0.18 kg/m3
- mass density (298.15 K, m1 = 0.11): 1017.91 ± 0.18 kg/m3
- mass density (298.15 K, m1 = 0.13): 1021.27 ± 0.18 kg/m3
- mass density (298.15 K, m1 = 0.15): 1024.52 ± 0.17 kg/m3
- viscosity (303.15 K, m1 = 0.01): 0.8062 ± 0.0075 mPa·s
- viscosity (303.15 K, m1 = 0.03): 0.8369 ± 0.0078 mPa·s
- viscosity (303.15 K, m1 = 0.05): 0.8669 ± 0.008 mPa·s
- viscosity (303.15 K, m1 = 0.07): 0.8964 ± 0.0083 mPa·s
- viscosity (303.15 K, m1 = 0.09): 0.9263 ± 0.0085 mPa·s
- viscosity (303.15 K, m1 = 0.11): 0.9559 ± 0.0088 mPa·s
- viscosity (303.15 K, m1 = 0.13): 0.9862 ± 0.009 mPa·s
- viscosity (303.15 K, m1 = 0.15): 1.019 ± 0.0093 mPa·s
- mass density (303.15 K, m1 = 0.01): 997.94 ± 0.22 kg/m3
- mass density (303.15 K, m1 = 0.03): 1002.05 ± 0.2 kg/m3
- mass density (303.15 K, m1 = 0.05): 1005.88 ± 0.19 kg/m3
- mass density (303.15 K, m1 = 0.07): 1009.48 ± 0.18 kg/m3
- mass density (303.15 K, m1 = 0.09): 1012.96 ± 0.18 kg/m3
- mass density (303.15 K, m1 = 0.11): 1016.34 ± 0.18 kg/m3
- mass density (303.15 K, m1 = 0.13): 1019.64 ± 0.17 kg/m3
- mass density (303.15 K, m1 = 0.15): 1022.89 ± 0.17 kg/m3
- viscosity (308.15 K, m1 = 0.01): 0.7252 ± 0.0068 mPa·s
- viscosity (308.15 K, m1 = 0.03): 0.7532 ± 0.007 mPa·s
- viscosity (308.15 K, m1 = 0.05): 0.7799 ± 0.0072 mPa·s
- viscosity (308.15 K, m1 = 0.07): 0.8066 ± 0.0074 mPa·s
- viscosity (308.15 K, m1 = 0.09): 0.8336 ± 0.0076 mPa·s
- viscosity (308.15 K, m1 = 0.11): 0.8594 ± 0.0079 mPa·s
- viscosity (308.15 K, m1 = 0.13): 0.8867 ± 0.0081 mPa·s
- viscosity (308.15 K, m1 = 0.15): 0.9172 ± 0.0083 mPa·s
- mass density (308.15 K, m1 = 0.01): 996.31 ± 0.22 kg/m3
- mass density (308.15 K, m1 = 0.03): 1000.43 ± 0.2 kg/m3
- mass density (308.15 K, m1 = 0.05): 1004.18 ± 0.19 kg/m3
- mass density (308.15 K, m1 = 0.07): 1007.75 ± 0.18 kg/m3
- mass density (308.15 K, m1 = 0.09): 1011.2 ± 0.18 kg/m3
- mass density (308.15 K, m1 = 0.11): 1014.55 ± 0.18 kg/m3
- mass density (308.15 K, m1 = 0.13): 1017.85 ± 0.17 kg/m3
- mass density (308.15 K, m1 = 0.15): 1021.04 ± 0.17 kg/m3
- viscosity (313.15 K, m1 = 0.01): 0.6576 ± 0.0062 mPa·s
- viscosity (313.15 K, m1 = 0.03): 0.682 ± 0.0064 mPa·s
- viscosity (313.15 K, m1 = 0.05): 0.707 ± 0.0066 mPa·s
- viscosity (313.15 K, m1 = 0.07): 0.7314 ± 0.0068 mPa·s
- viscosity (313.15 K, m1 = 0.09): 0.7559 ± 0.007 mPa·s
- viscosity (313.15 K, m1 = 0.11): 0.7783 ± 0.0072 mPa·s
- viscosity (313.15 K, m1 = 0.13): 0.8042 ± 0.0074 mPa·s
- viscosity (313.15 K, m1 = 0.15): 0.8303 ± 0.0077 mPa·s
- mass density (313.15 K, m1 = 0.01): 994.47 ± 0.22 kg/m3
- mass density (313.15 K, m1 = 0.03): 998.57 ± 0.2 kg/m3
- mass density (313.15 K, m1 = 0.05): 1002.27 ± 0.19 kg/m3
- mass density (313.15 K, m1 = 0.07): 1005.83 ± 0.18 kg/m3
- mass density (313.15 K, m1 = 0.09): 1009.24 ± 0.18 kg/m3
- mass density (313.15 K, m1 = 0.11): 1012.57 ± 0.17 kg/m3
- mass density (313.15 K, m1 = 0.13): 1015.83 ± 0.17 kg/m3
- mass density (313.15 K, m1 = 0.15): 1018.99 ± 0.17 kg/m3
